Data as given in patent US8093279B2, “Compound” (priority 2005, dated 2012).

Assays:
rats = conditions: cited from earlier work
steroid sulphatase = molecular target: T1, steroid sulphatase (Homo sapiens, UniProt P08842); conditions: cited from earlier work
T1 sequence (P08842 22-583): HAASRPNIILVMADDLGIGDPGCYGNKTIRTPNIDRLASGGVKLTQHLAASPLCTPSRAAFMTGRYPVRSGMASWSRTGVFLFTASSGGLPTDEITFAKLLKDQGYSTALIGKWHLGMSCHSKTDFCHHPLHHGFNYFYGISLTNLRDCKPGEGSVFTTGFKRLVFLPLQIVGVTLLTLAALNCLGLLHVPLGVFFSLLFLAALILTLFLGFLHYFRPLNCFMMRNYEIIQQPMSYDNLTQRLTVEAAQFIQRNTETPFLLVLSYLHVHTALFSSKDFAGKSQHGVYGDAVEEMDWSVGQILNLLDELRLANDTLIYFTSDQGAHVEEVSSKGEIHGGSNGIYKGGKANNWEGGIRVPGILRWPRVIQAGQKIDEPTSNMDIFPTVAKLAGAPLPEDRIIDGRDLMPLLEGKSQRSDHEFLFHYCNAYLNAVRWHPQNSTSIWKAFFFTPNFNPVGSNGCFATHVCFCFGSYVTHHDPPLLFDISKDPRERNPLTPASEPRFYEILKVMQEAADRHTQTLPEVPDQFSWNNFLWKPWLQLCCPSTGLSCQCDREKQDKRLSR

Aromatase = molecular target: T2, Aromatase (Homo sapiens, UniProt P11511); experiment: Aromatase activity in JEG3 choriocarcinoma cells (Protocol 6); format: cell-based; conditions: JEG3 cells
T2 construct: host or cells: JEG3 choriocarcinoma cells (intact monolayers)
T2 sequence (P11511 1-503): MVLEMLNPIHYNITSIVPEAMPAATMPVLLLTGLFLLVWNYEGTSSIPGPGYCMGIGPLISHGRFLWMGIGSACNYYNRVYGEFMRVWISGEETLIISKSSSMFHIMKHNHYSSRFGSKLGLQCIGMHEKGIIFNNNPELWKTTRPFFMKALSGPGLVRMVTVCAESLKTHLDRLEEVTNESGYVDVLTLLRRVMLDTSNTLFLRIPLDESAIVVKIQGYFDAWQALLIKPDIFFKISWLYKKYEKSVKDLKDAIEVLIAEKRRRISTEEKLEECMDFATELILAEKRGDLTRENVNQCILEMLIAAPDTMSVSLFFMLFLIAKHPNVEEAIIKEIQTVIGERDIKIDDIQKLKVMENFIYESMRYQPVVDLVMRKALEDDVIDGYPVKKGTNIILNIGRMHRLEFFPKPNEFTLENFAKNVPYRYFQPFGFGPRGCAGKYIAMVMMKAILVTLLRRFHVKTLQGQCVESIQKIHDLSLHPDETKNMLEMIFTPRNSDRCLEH
Protocol: Aromatase activity is measured in JEG3 choriocarcinoma cells, obtained from the ATCC.
During the aromatase reaction, ^3H2O is liberated which can be quantified using a liquid scintillation spectrometer (Beckman-Coulter, High Wycombe, Bucks. UK). […] The number of cell nuclei per flask is determined using a Coulter Counter after treating the cell monolayers with Z aponin.
Unpaired Student's t test was used to test the statistical significance of results.
(§1) A number of compounds were tested for aromatase and steroid sulphatase inhibition in accordance with the above Protocols 1 and 6.

steroid sulphatase (STS) = molecular target: T3, steroid sulphatase (STS) (Homo sapiens, UniProt P08842); experiment: Inhibition of steroid sulphatase activity in intact JEG3 cells (Protocol 1); format: cell-based; conditions: for IC50: JEG3 cells
T3 construct: host or cells: JEG3 choriocarcinoma cells (intact monolayers)
T3 sequence (P08842 22-583): T1 sequence (P08842 22-583)
Protocol: Inhibition of Steroid Sulphatase Activity in JEG3 cells
Steroid sulphatase activity is measured in vitro using intact JEG3 choriocarcinoma cells. This cell line may be used to study the control of human breast cancer cell growth.
Cells are maintained in Minimal Essential Medium (MEM) (Flow Laboratories, Irvine, Scotland) containing 20 mM HEPES, 5% foetal bovine serum, 2 mM glutamine, non-essential amino acids and 0.075% sodium bicarbonate. Up to 30 replicate 25 cm^2 tissue culture flasks are seeded with approximately 1×10^5 cells/flask using the above medium. Cells are grown to 80% confluency and the medium is changed every third day.
Intact monolayers of JEG3 cells in triplicate 25 cm^2 tissue culture flasks are washed with Earle's Balanced Salt Solution (EBSS from ICN Flow, High Wycombe, U.K.) and incubated for 3-4 hours at 37° C. with 5 pmol (7×10^5 dpm) [6, 7-3H]oestrone-3-sulphate (specific activity 60 Ci/mmol from New England Nuclear, Boston, Mass., U.S.A.) in serum-free MEM (2.5 ml) together with oestrone-3-sulphamate (11 concentrations: 0; 1fM; 0.01 pM; 0.1 pM; 1 pM; 0.01 nM; 0.1 nM; 1 nM; […]). After incubation each flask is cooled and the medium (1 ml) is pipetted into separate tubes containing [14C]oestrone (7×10^3 dpm) (specific activity 97 Ci/mmol from Amersham International Radiochemical Centre, Amersham, U.K.). The mixture is shaken thoroughly for 30 seconds with toluene (5 ml). Experiments have shown that >90% [14C]oestrone and <0.1% [3H]oestrone-3-sulphate is removed from the aqueous phase by this treatment. A portion (2 ml) of the organic phase is removed, evaporated and the 3H and 14C content of the residue determined by scintillation spectrometry. The mass of oestrone-3-sulphate hydrolysed was calculated from the 3H counts obtained (corrected for the volumes of the medium and organic phase used, and for recovery of [14C]oestrone added) and the specific activity of the substrate. Each batch of experiments includes incubations of microsomes prepared from a sulphatase-positive human placenta (positive control) and flasks without cells (to assess apparent non-enzymatic hydrolysis of the substrate). The number of cell nuclei per flask is determined using a Coulter Counter after treating the cell monolayers with Zaponin. One flask in each batch is used to assess cell membrane status and viability using the Trypan Blue exclusion method (Phillips, H. J. (1973) In: Tissue culture and applications, [eds: Kruse, D. F. & Patterson, M. K.]; pp. 406-408; Academic Press, New York).
Results for steroid sulphatase activity are expressed as the mean±1 S.D. of the total product (oestrone+oestradiol) formed during the incubation period (3-4 hours) calculated for […] and, for values showing statistical significance, as a percentage reduction (inhibition) over incubations containing no oestrone-3-sulphamate. Unpaired Student's t-test was used to test the statistical significance of results.
as §1

[1] = cited from earlier work
E1-STS = molecular target: T4, E1-STS (Homo sapiens, UniProt P08842); conditions: at 0.1 nM; cited from earlier work
T4 construct: host or cells: intact MCF-7 cells (endogenous enzyme)
T4 sequence (P08842 22-583): T1 sequence (P08842 22-583)

SMILES: COc1cc2c(cc1OS(N)(=O)=O)CC[C@@H]1[C@@H]2CC[C@]2(C)C(=O)CC[C@@H]12 [2-methoxyoestrone-3-O-sulphamate]
- oestrogenicity (rats; rat, in vivo): devoid of oestrogenicity
- potency as a steroid sulphatase inhibitor compared with EMATE (steroid sulphatase): equipotent with EMATE

SMILES: N#Cc1ccc(Cn2cncn2)cc1-c1ccc(OS(N)(=O)=O)cc1 [Compound 20, 5′-((1H-1,2,4-triazol-1-yl)methyl)-2′-cyanobiphenyl-4-yl sulfamate]
- IC50 (Aromatase): < 1000 nM
- IC50 (steroid sulphatase (STS)): < 1000 nM

SMILES: N#Cc1ccc(Cn2cncn2)cc1-c1ccc(OS(N)(=O)=O)c(Cl)c1 [Compound 23, 5′-((1H-1,2,4-triazol-1-yl)methyl)-3-chloro-2′-cyanobiphenyl-4-yl sulfamate]
- IC50 (steroid sulphatase (STS)): < 1000 nM

SMILES: N#Cc1ccc(-c2ccc(OS(N)(=O)=O)cc2)cc1Cn1cncn1 [Compound 31, 3′-((1H-1,2,4-triazol-1-yl)methyl)-4′-cyanobiphenyl-4-yl sulfamate]
- IC50 (Aromatase): < 1000 nM
- IC50 (steroid sulphatase (STS)): < 1000 nM
- melting point: 179 to 180 °C

SMILES: N#Cc1ccc(-c2ccc(OS(N)(=O)=O)c(Cl)c2)cc1Cn1cncn1 [Compound 33, 3′-((1H-1,2,4-triazol-1-yl)methyl)-3-chloro-4′-cyanobiphenyl-4-yl sulfamate]
- IC50 (Aromatase): < 1000 nM
- IC50 (steroid sulphatase (STS)): < 1000 nM
- melting point: 155 to 158 °C

SMILES: N#Cc1cc(Cn2cncn2)cc(-c2ccc(OS(N)(=O)=O)c(Cl)c2)c1 [Compound 40, 3′-((1H-1,2,4-triazol-1-yl)methyl)-3-chloro-5′-cyanobiphenyl-4-yl sulfamate]
- IC50 (Aromatase): < 1000 nM
- IC50 (steroid sulphatase (STS)): < 10000 nM

SMILES: N#Cc1cc(Cn2cncn2)ccc1-c1ccc(OS(N)(=O)=O)cc1 [Compound 48, 4′-((1H-1,2,4-triazol-1-yl)methyl)-2′-cyanobiphenyl-4-yl sulfamate]
- IC50 (Aromatase): < 1000 nM
- IC50 (steroid sulphatase (STS)): < 1000 nM

SMILES: N#Cc1cc(Cn2cncn2)ccc1-c1ccc(OS(N)(=O)=O)c(Cl)c1 [Compound 50, 4′-((1H-1,2,4-triazol-1-yl)methyl)-3-chloro-2′-cyanobiphenyl-4-yl sulfamate]
- IC50 (Aromatase): < 1000 nM
- IC50 (steroid sulphatase (STS)): < 1000 nM

SMILES: CC(C)(C#N)c1cc(Cn2cncn2)cc(-c2ccc(OS(N)(=O)=O)c(Cl)c2)c1 [Compound 58, 3′-((1H-1,2,4-triazol-1-yl)methyl)-3-chloro-5′-(2-cyanopropan-2-yl)biphenyl-4-yl sulfamate]
- IC50 (Aromatase): < 1000 nM
- JEG3-cells STS, % at single concentration (steroid sulphatase (STS); @ 10 μM): 68.2 ± 1.6% @ 10 μM
- melting point: 71 to 74 °C

SMILES: C[C@]12CC[C@@H]3c4ccc(OS(=O)(=O)O)cc4CC[C@H]3[C@@H]1CCC2=O [E1S, oestrone sulphate]
- half-life in blood [1]: 10 to 12 h

SMILES: CC12CCC3c4ccc(OS(N)(=O)=O)cc4CCC3C1CCC2=O (stereo not drawn) [EMATE, oestrone-3-sulphamate]
- oral uterotrophic activity in rats relative to estradiol (rats; oral, rats, versus estradiol): 100 times
- inhibition of E1-STS activity in intact MCF-7 cells (E1-STS): more than 99%

SMILES: NS(=O)(=O)Oc1ccc(-c2cccc(Cn3cncn3)c2)cc1 [compound 1455]
- IC50 (Aromatase): < 1000 nM
- IC50 (steroid sulphatase (STS)): < 10000 nM

SMILES: NS(=O)(=O)Oc1cccc(-c2cccc(Cn3cncn3)c2)c1 [compound 1848]
- IC50 (Aromatase): < 1000 nM
- IC50 (steroid sulphatase (STS)): < 10000 nM

SMILES: NS(=O)(=O)Oc1ccc(-c2cccc(Cn3cncn3)c2)cc1Cl [compound 1854]
- IC50 (Aromatase): < 1000 nM
- IC50 (steroid sulphatase (STS)): < 1000 nM

SMILES: NS(=O)(=O)Oc1ccc(-c2ccc(Cn3cncn3)cc2)cc1 [compound 1976]
- IC50 (Aromatase): < 10000 nM
- IC50 (steroid sulphatase (STS)): < 10000 nM

SMILES: NS(=O)(=O)Oc1ccc(SCc2cccc(Cn3cncn3)c2)cc1Cl [compound 1979]
- IC50 (Aromatase): < 1000 nM
- IC50 (steroid sulphatase (STS)): < 1000 nM

SMILES: NS(=O)(=O)Oc1ccc(SCc2ccc(Cn3cncn3)cc2)cc1Cl [compound 1980]
- IC50 (Aromatase): < 1000 nM
- IC50 (steroid sulphatase (STS)): < 1000 nM

SMILES: NS(=O)(=O)Oc1ccc(C#Cc2cccc(Cn3cncn3)c2)cc1Cl [compound 2054]
- IC50 (steroid sulphatase (STS)): < 1000 nM
